Reference: ChEMBL document CHEMBL1128628, “in vivo potent antimalarial 1,2,4-trioxanes: Synthesis and activity of 8-(-arylvinyl)-6,7,10-trioxaspiro[4,5]decanes and 3-(-arylvinyl)-1,2,5-trioxaspiro[5,5]undecanes against Plasmodium berghei in mice” (1995)
Activity calls are given as the source filed them. The calls are words filed in the database; no cut-off is given here.

What was measured:
Mus musculus [1] = test: Evaluated for antimalarial activity against Plasmodium berghei in mice (Mus musculus) at 90 mg/kg; inactive; type: functional, organism-based; set-up: dose 90 mg/kg
Mus musculus [2] = test: Evaluated for antimalarial activity against Plasmodium berghei in mice (Mus musculus) at 90 mg/kg; active; type: functional, organism-based; set-up: dose 90 mg/kg
Mus musculus [3] = test: Evaluated for antimalarial activity against Plasmodium berghei in mice (Mus musculus) at 30 mg/kg on day 6; type: functional

SMILES | Activity (Mus musculus [1]) | Activity (Mus musculus [2]) | Suppression (Mus musculus [3])
C=C(c1ccc(OC)cc1)C1COC2(CCCCC2)OO1 (stereo unspecified) | inactive |  | 
C=C(c1ccc(Cl)cc1)C1(C)COC2(CCCCC2)OO1 (stereo unspecified) | inactive |  | 
C=C(c1ccccc1)C1(C)COC2(CCCCC2)OO1 (stereo unspecified) | inactive |  | 
C=C(c1ccc(F)cc1)C1COC2(CCCC2)OO1 (stereo unspecified) |  | Active | 
C=C(c1ccccc1)C1COC2(CCCC2)OO1 (stereo unspecified) |  | Active | >90%
C=C(c1ccc(Cl)cc1)C1COC2(CCCC2)OO1 (stereo unspecified) |  | Active | >90%
C=C(c1ccc(F)cc1)C1COC2(CCCCC2)OO1 (stereo unspecified) |  | Active | 
C=C(c1ccc(Cl)cc1)C1COC2(CCCCC2)OO1 (stereo unspecified) |  | Active | 
C=C(c1ccccc1)C1COC2(CCCCC2)OO1 (stereo unspecified) | inactive |  | 
C=C(c1ccc(C)cc1)C1COC2(CCCCC2)OO1 (stereo unspecified) | inactive |  | 
C=C(c1ccccc1)C1(C)COC2(CCCC2)OO1 (stereo unspecified) | inactive |  | 
C=C(c1ccc(C)cc1)C1COC2(CCCC2)OO1 (stereo unspecified) |  | Active | 
C=C(c1ccc(OC)cc1)C1COC2(CCCC2)OO1 (stereo unspecified) |  | Active | 
C=C(c1ccc(Cl)cc1)C1(C)COC2(CCCC2)OO1 (stereo unspecified) | inactive |  | 
